Data from publication PMC9120013, “Ribosome inhibition by C9ORF72-ALS/FTD-associated poly-PR and poly-GR proteins revealed by cryo-EM” (Nature Communications, 2022).
Ends that are not written are not given here.

Tested on: E. coli 70S ribosomes
Test: Erythromycin competition in the puromycin assay on 70S ribosomes
Type: biochemical
Details: 20 μM erythromycin and/or 2 μM PR20, 30 nM 70S, quenched at 300 s
Method: The assay was performed as described above for the puromycin kinetics, except that the 70S ribosomes were pre-incubated with 22 μM erythromycin for 5 min prior to adding PR20. The stock solution of erythromycin contained 2 mM erythromycin in ethanol, so the control reaction (70S with no erythromycin) and the reactions with erythromycin were prepared to contain the same amount of ethanol (1%). The final concentrations after addition of puromycin were: 30 nM 70S, 66 nM [^35S]-fMet-tRNA^fMet, 1 μM mRNA, 2 μM PR20 (no PR20 in the control reaction), 20 μM erythromycin (or no erythromycin in a control reaction), 50 µM puromycin (in 20 mM Tris-acetate (pH 7.0), 100 mM NH4OAc, 12 mM Mg(OAc)2 and 1% ethanol). Samples were quenched at 300 s when the uninhibited reaction had reached a plateau.

“PRPRPRPRPRPRPRPRPRPRPRPRPRPRPRPRPRPRPRPR [PR20]” showed a fMet-puromycin formed (first column (replicate 1)) of 254 and a fMet-puromycin formed (second column (replicate 2)) of 277.
